Experimental data: ChEMBL document CHEMBL1201862, “PubChem BioAssay data set” (2004)
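The compound was tested at five concentrations on cells cultured in 96-well plates, with a 48-hour exposure period. GI50 = concentration required for 50% inhibition of growth.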 Active and inactive are the calls of the source. Rule as the data show it: active = GI50 up to about 1.1 µM and inactive = higher.

Legend:
Assay in all cases: NCI anticancer screen, dose series, 48 h
NCI-H23 = system: NCI-H23
CCRF-CEM = system: CCRF-CEM
SNB-19 = system: SNB-19
Malme-3M = system: Malme-3M
K562 = system: K562
UACC-257 = system: UACC-257
SW-620 = system: SW-620
UACC-62 = system: UACC-62
A549 = system: A549
MDA-MB-231 = system: MDA-MB-231
SF-539 = system: SF-539
ACHN = system: ACHN
IGROV-1 = system: IGROV-1
SN12C = system: SN12C
HOP-62 = system: HOP-62
NCI-H522 = system: NCI-H522
MDA-N = system: MDA-N
NCI/ADR-RES = system: NCI/ADR-RES
OVCAR-4 = system: OVCAR-4
HCT-116 = system: HCT-116
MCF7 = system: MCF7
786-0 = system: 786-0
MOLT-4 = system: MOLT-4
OVCAR-3 = system: OVCAR-3
M14 = system: M14
U-251 = system: U-251
Hs-578T = system: Hs-578T
MDA-MB-435 = system: MDA-MB-435
DU-145 = system: DU-145
SK-MEL-2 = system: SK-MEL-2
HOP-92 = system: HOP-92
T47D = system: T47D
OVCAR-8 = system: OVCAR-8
SK-MEL-5 = system: SK-MEL-5
RXF 393 = system: RXF 393
UO-31 = system: UO-31
PC-3 = system: PC-3
HT-29 = system: HT-29
SK-MEL-28 = system: SK-MEL-28
COLO 205 = system: COLO 205
CAKI-1 = system: CAKI-1
TK-10 = system: TK-10
OVCAR-5 = system: OVCAR-5
KM12 = system: KM12
A498 = system: A498
RPMI-8226 = system: RPMI-8226
LOX IMVI = system: LOX IMVI
HCT-15 = system: HCT-15
EKVX = system: EKVX
SF-268 = system: SF-268
BT-549 = system: BT-549
HL-60 = system: HL-60
SF-295 = system: SF-295
NCI-H226 = system: NCI-H226
SNB-75 = system: SNB-75
SK-OV-3 = system: SK-OV-3
NCI-H460 = system: NCI-H460
HCC 2998 = system: HCC 2998
SR = system: SR

Measured: GI50

CCO[C@H]1C[C@@H](c2ccccc2)[C@]2(C)C[C@H](C(=O)OC)ON2O1
inactive: NCI-H23 > 100 µM | CCRF-CEM > 100 µM | SNB-19 > 100 µM | Malme-3M > 100 µM | K562 > 100 µM | UACC-257 > 100 µM | SW-620 > 100 µM | UACC-62 > 100 µM | A549 > 100 µM | MDA-MB-231 > 100 µM | SF-539 > 100 µM | ACHN > 100 µM | IGROV-1 > 100 µM | SN12C > 100 µM | HOP-62 > 100 µM | NCI-H522 > 100 µM | MDA-N > 100 µM | NCI/ADR-RES > 100 µM | OVCAR-4 > 100 µM | HCT-116 > 100 µM | MCF7 > 100 µM | 786-0 > 100 µM | MOLT-4 > 100 µM | OVCAR-3 > 100 µM | M14 > 100 µM | U-251 > 100 µM | Hs-578T > 100 µM | MDA-MB-435 > 100 µM | DU-145 > 100 µM | SK-MEL-2 > 100 µM | HOP-92 > 100 µM | T47D > 100 µM | OVCAR-8 > 100 µM | SK-MEL-5 > 100 µM | RXF 393 > 100 µM | UO-31 > 100 µM | PC-3 > 100 µM | HT-29 > 100 µM | SK-MEL-28 > 100 µM | COLO 205 > 100 µM | CAKI-1 > 100 µM | TK-10 > 100 µM | OVCAR-5 > 100 µM | KM12 > 100 µM | A498 > 100 µM | RPMI-8226 > 100 µM | LOX IMVI > 100 µM | EKVX > 100 µM | SF-268 > 100 µM | BT-549 > 100 µM | HL-60 > 100 µM | SF-295 > 100 µM | NCI-H226 > 100 µM
> 100 µM: HCT-15

Cc1cc(NCCCCCCCCCC[n+]2c(C)cc(N)c3ccccc32)c2ccccc2n1
active: NCI-H23 0.0708 µM | CCRF-CEM 0.472 µM | SNB-19 0.427 µM | K562 0.0409 µM | UACC-257 0.216 µM | SNB-75 0.853 µM | A549 0.378 µM | MDA-MB-231 0.652 µM | SK-OV-3 1.11 µM | IGROV-1 0.419 µM | SN12C 0.733 µM | NCI-H522 0.253 µM | NCI-H460 0.0638 µM | MDA-N 1.04 µM | HCT-116 0.209 µM | MCF7 0.313 µM | MOLT-4 0.322 µM | OVCAR-3 0.975 µM | U-251 0.069 µM | Hs-578T 0.375 µM | MDA-MB-435 1.01 µM | T47D 0.333 µM | OVCAR-8 0.875 µM | SK-MEL-5 0.112 µM | PC-3 0.188 µM | COLO 205 0.346 µM | KM12 0.2 µM | RPMI-8226 0.029 µM | LOX IMVI 0.546 µM | HCC 2998 0.675 µM | HL-60 0.0721 µM | SF-295 0.861 µM
inactive: Malme-3M 1.82 µM | SW-620 1.84 µM | UACC-62 1.16 µM | SF-539 1.82 µM | ACHN 2.31 µM | HOP-62 4.36 µM | NCI/ADR-RES 12.6 µM | OVCAR-4 1.42 µM | 786-0 1.78 µM | M14 2.04 µM | DU-145 2.49 µM | SK-MEL-2 1.87 µM | HOP-92 1.83 µM | RXF 393 4.1 µM | UO-31 5.52 µM | SK-MEL-28 1.47 µM | CAKI-1 9.68 µM | TK-10 1.82 µM | OVCAR-5 4.2 µM | A498 2.08 µM | SF-268 1.43 µM | BT-549 1.86 µM | NCI-H226 2.67 µM
3.95 µM: HCT-15

C=CCN1C[C@H](C)N([C@H](c2ccc(C(=O)N(CC)CCO)cc2)c2cccc(OC)c2)C[C@H]1C
> 100 µM: HCT-15
inactive: NCI-H23 > 100 µM | SNB-19 > 100 µM | Malme-3M > 100 µM | UACC-257 47 µM | SW-620 > 100 µM | UACC-62 > 100 µM | A549 > 100 µM | MDA-MB-231 > 100 µM | SK-OV-3 71.8 µM | SF-539 > 100 µM | ACHN > 100 µM | IGROV-1 > 100 µM | SN12C > 100 µM | HOP-62 > 100 µM | NCI-H522 > 100 µM | MDA-N > 100 µM | NCI/ADR-RES > 100 µM | OVCAR-4 > 100 µM | HCT-116 > 100 µM | MCF7 92.9 µM | 786-0 > 100 µM | MOLT-4 51.5 µM | OVCAR-3 12.3 µM | M14 > 100 µM | U-251 56 µM | Hs-578T > 100 µM | MDA-MB-435 > 100 µM | DU-145 > 100 µM | SK-MEL-2 > 100 µM | HOP-92 13.6 µM | T47D 38.5 µM | OVCAR-8 > 100 µM | SK-MEL-5 54.7 µM | UO-31 > 100 µM | PC-3 38.6 µM | HT-29 47.6 µM | SK-MEL-28 > 100 µM | SR 51.3 µM | COLO 205 43.5 µM | CAKI-1 > 100 µM | TK-10 > 100 µM | OVCAR-5 > 100 µM | KM12 > 100 µM | A498 76.6 µM | RPMI-8226 40 µM | EKVX > 100 µM | SF-268 > 100 µM | BT-549 > 100 µM | HL-60 > 100 µM | SF-295 > 100 µM | NCI-H226 50.1 µM

CS(=O)(=O)OCC1OC(n2ccc(NC(=O)c3ccccc3)nc2=O)CC1OS(C)(=O)=O (configuration not stated)
inactive: NCI-H23 > 100 µM | CCRF-CEM > 100 µM | SNB-19 > 100 µM | K562 > 100 µM | UACC-257 > 100 µM | SNB-75 > 100 µM | SW-620 > 100 µM | UACC-62 > 100 µM | A549 > 100 µM | MDA-MB-231 > 100 µM | SK-OV-3 > 100 µM | SF-539 > 100 µM | ACHN > 100 µM | IGROV-1 > 100 µM | SN12C > 100 µM | HOP-62 > 100 µM | NCI-H522 > 100 µM | NCI-H460 > 100 µM | MDA-N > 100 µM | NCI/ADR-RES > 100 µM | OVCAR-4 > 100 µM | HCT-116 > 100 µM | MCF7 > 100 µM | 786-0 > 100 µM | MOLT-4 > 100 µM | OVCAR-3 > 100 µM | M14 > 100 µM | U-251 > 100 µM | Hs-578T > 100 µM | MDA-MB-435 > 100 µM | DU-145 > 100 µM | SK-MEL-2 > 100 µM | T47D > 100 µM | OVCAR-8 > 100 µM | SK-MEL-5 > 100 µM | UO-31 > 10 µM | PC-3 > 100 µM | HT-29 > 100 µM | SK-MEL-28 > 100 µM | SR > 100 µM | COLO 205 > 100 µM | CAKI-1 > 100 µM | TK-10 > 100 µM | OVCAR-5 > 100 µM | KM12 > 100 µM | A498 > 100 µM | RPMI-8226 > 100 µM | LOX IMVI > 100 µM | EKVX > 100 µM | SF-268 > 100 µM | BT-549 > 100 µM | HL-60 > 100 µM | SF-295 > 100 µM | NCI-H226 > 100 µM
> 100 µM: HCT-15
